Results reported in PMC10053770, “Assessment of the Pharmacokinetics, Disposition, and Duration of Action of the Tumour-Targeting Peptide CEND-1” (International Journal of Molecular Sciences, 2023).

What was measured:
[1] = Single-dose intravenous pharmacokinetics in mice; assay type: in vivo, mouse; conditions: for clearance: read-out: Cl_obs (converted); for Vd: read-out: V
Procedure: (§1) The in vivo pharmacokinetic profile of CEND-1 after a single dose was evaluated in four non-GLP animal studies including Sprague-Dawley rats, Beagle dogs, cynomolgus monkeys and BALB/c mice following the intravenous injection of CEND-1 at various doses (1, 5 and 50 mg/kg for rats, dogs and monkeys; 1.5, 4.5 and 13.5 mg/kg for mice) (Table 1). Blood samples were collected for pharmacokinetic evaluations pre-dose and at 1, 5, 10, 15 and 30 min, and 1, 2 and 6 h post-dose in rats, dogs and monkeys, and 3, 10, 30 and 90 min, and 4 and 8 h post-dose in mice.
(§2) Plasma CEND-1 was quantified by validated liquid chromatography coupled with a tandem mass spectrometry (LC/MS/MS) assay. Tolbutamide or leuprorelin acetate were used as internal standards. AB Sciex Triple Quad API 5500 (Sciex, Framingham, MA, USA), operated in the positive electrospray ionization (ESI) mode, was used to monitor the precursor to production ion transitions of m/z 495.4→69.9.
(§3) No formal sample size calculation was performed. Samples of 2–12 animals and 31 pancreatic cancer patients were considered acceptable to perform initial pharmacokinetic evaluations. The concentrations of CEND-1 were used to calculate PK parameters by employing a non-compartmental analysis (Phoenix^TM WinNonlin, version 6.1). The linear log trapezoidal algorithm, with a weighting of 1/Y*Y was used for parameter calculations. Mean PK parameters were calculated from individual animals in each treatment group. Concentrations below the LLOQ (if any) were excluded for the calculation of PK parameters. The mean values of PK parameters were calculated using Microsoft Excel version 2010.

[2] = Single-dose intravenous pharmacokinetics in rats; assay type: in vivo, rat; conditions: for Vd: read-out: V; for clearance: read-out: Cl_obs (converted)
Procedure: The in vivo pharmacokinetic profile of CEND-1 after a single dose was evaluated in four non-GLP animal studies including Sprague-Dawley rats, Beagle dogs, cynomolgus monkeys and BALB/c mice following the intravenous injection of CEND-1 at various doses ([…]; 1.5, 4.5 and 13.5 mg/kg for mice) (Table 1). Blood samples were collected for pharmacokinetic evaluations pre-dose and at 1, 5, 10, 15 and 30 min, and 1, 2 and 6 h post-dose in rats, dogs and monkeys, and 3, 10, 30 and 90 min, and 4 and 8 h post-dose in mice.
as §2, §3

[3] = Single-dose intravenous pharmacokinetics in cynomolgus monkeys; assay type: in vivo; conditions: cynomolgus monkey; for clearance: read-out: Cl_obs (converted); for Vd: read-out: V
Procedure: as §1, §2, §3

[4] = Detailed clinical and cage-side observations in pre-clinical species; assay type: in vivo, mice, rats, dogs and monkeys; conditions: any of the pre-clinical species tested, single IV dose
[5] = design: method as in PMID 35803294; conditions: phase I trial, monotherapy and in combination with chemotherapy drugs; cited from earlier work
[6] = male, BALB/c mouse, M, n=3, 1.5 mg/kg single IV, plasma LC/MS/MS, non-compartmental, one time point per animal
[7] = male, BALB/c mouse, M, n=3, 4.5 mg/kg single IV, plasma LC/MS/MS, non-compartmental, one time point per animal
[8] = male, BALB/c mouse, M, n=3, 13.5 mg/kg single IV, plasma LC/MS/MS, non-compartmental, one time point per animal
[9] = female, Sprague-Dawley rat, F, n=6, 1 mg/kg single IV, plasma LC/MS/MS, non-compartmental, one time point per animal
[10] = female, Sprague-Dawley rat, F, n=6, 5 mg/kg single IV, plasma LC/MS/MS, non-compartmental, one time point per animal
[11] = female, Sprague-Dawley rat, F, n=6, 75 mg/kg single IV, plasma LC/MS/MS, non-compartmental, one time point per animal
[12] = female, Sprague-Dawley rat, F, n=6, single IV, plasma LC/MS/MS, non-compartmental, one time point per animal
[13] = male, Sprague-Dawley rat, M, n=6, 1 mg/kg single IV, plasma LC/MS/MS, non-compartmental, one time point per animal
[14] = male, Sprague-Dawley rat, M, n=6, 5 mg/kg single IV, plasma LC/MS/MS, non-compartmental, one time point per animal
[15] = male, Sprague-Dawley rat, M, n=6, 75 mg/kg single IV, plasma LC/MS/MS, non-compartmental, one time point per animal
[16] = male, Sprague-Dawley rat, M, n=6, single IV, plasma LC/MS/MS, non-compartmental, one time point per animal
[17] = male, M, n=3, 5 mg/kg single IV, plasma LC/MS/MS, non-compartmental, mean (SD)
[18] = male, M, n=3, 50 mg/kg single IV, plasma LC/MS/MS, non-compartmental, mean (SD)

CC(=O)N[C@H]1CSSC[C@@H](C(N)=O)NC(=O)[C@H](CC(=O)O)NC(=O)[C@@H]2CCCN2C(=O)CNC(=O)[C@H](CCCCN)NC(=O)[C@H](CC(=O)O)NC(=O)CNC(=O)[C@H](CCCNC(=N)N)NC1=O [CEND-1] showed a half-life ([1]; BALB/c, mouse, plasma, iv, mice, single intravenous dose, read-out: average plasma half-life) of roughly 25 min, a C0 ([1]; BALB/c, plasma, iv, mouse, dose level of 4–5 mg/kg, read-out: Cmax (C0)) of roughly 40000 ng/mL and a half-life ([1]; male, BALB/c, mouse, plasma, iv, 1.5 mg/kg, BALB/c mouse, M, n=3, 1.5 mg/kg single IV, plasma LC/MS/MS, non-compartmental, one time point per animal, read-out: t1/2 (converted)) of 18.4 min. It also gave a half-life ([1]; male, BALB/c, mouse, plasma, iv, 4.5 mg/kg, BALB/c mouse, M, n=3, 4.5 mg/kg single IV, plasma LC/MS/MS, non-compartmental, one time point per animal, read-out: t1/2 (converted)) of 20.6 min, a half-life ([1]; male, BALB/c, mouse, plasma, iv, 13.5 mg/kg, BALB/c mouse, M, n=3, 13.5 mg/kg single IV, plasma LC/MS/MS, non-compartmental, one time point per animal, read-out: t1/2 (converted)) of 32.8 min and an AUC(0-inf) [1, 6] of 1480 ng·h/mL. The C0 ([1]; male, BALB/c mouse, M, n=3, 1.5 mg/kg single IV, plasma LC/MS/MS, non-compartmental, one time point per animal, read-out: C0) was 10300 ng/mL, the clearance [1, 6] was 16.9 mL/min/kg and the Vd [1, 6] was 0.449 L/kg. It also gave an AUC(0-inf) [1, 7] of 3700 ng·h/mL, a C0 ([1]; male, BALB/c mouse, M, n=3, 4.5 mg/kg single IV, plasma LC/MS/MS, non-compartmental, one time point per animal, read-out: C0) of 40300 ng/mL and a clearance [1, 7] of 20.1 mL/min/kg. The Vd [1, 7] was 0.599 L/kg, the AUC(0-inf) [1, 8] was 10600 ng·h/mL and the C0 ([1]; male, BALB/c mouse, M, n=3, 13.5 mg/kg single IV, plasma LC/MS/MS, non-compartmental, one time point per animal, read-out: C0) was 68400 ng/mL. It also gave a clearance [1, 8] of 21.3 mL/min/kg, a Vd [1, 8] of 1.01 L/kg and a Cl_obs ([2]; Sprague-Dawley rat, F, n=6, 1 mg/kg single IV, plasma LC/MS/MS, non-compartmental, one time point per animal) of 9.37 mL/min/kg. It also gave a half-life ([2]; Sprague-Dawley, rat, plasma, rats, single intravenous dose, read-out: average half-life) of roughly 30 min, an AUC(0-inf) [2, 9] of 1750 ng·h/mL and a C0 [2, 9] of 3980 ng/mL. The Vd [2, 9] was 0.201 L/kg, the half-life ([2]; female, Sprague-Dawley rat, F, n=6, 1 mg/kg single IV, plasma LC/MS/MS, non-compartmental, one time point per animal, read-out: t1/2 (converted)) was 14.9 min and the AUC(0-inf) [2, 10] was 9750 ng·h/mL. It also gave a C0 [2, 10] of 28400 ng/mL, a clearance [2, 10] of 8.55 mL/min/kg and a Vd [2, 10] of 0.323 L/kg. The half-life ([2]; female, Sprague-Dawley rat, F, n=6, 5 mg/kg single IV, plasma LC/MS/MS, non-compartmental, one time point per animal, read-out: t1/2 (converted)) was 26.2 min, the AUC(0-inf) [2, 11] was 166000 ng·h/mL and the Vd [2, 11] was 0.254 L/kg. For the same compound, the half-life ([2]; female, Sprague-Dawley rat, F, n=6, 75 mg/kg single IV, plasma LC/MS/MS, non-compartmental, one time point per animal, read-out: t1/2 (converted)) was 23.5 min, the C0 [2, 12] was 436000 ng/mL and the clearance [2, 12] was 7.52 mL/min/kg. It also gave an AUC(0-inf) [2, 13] of 1770 ng·h/mL, a C0 [2, 13] of 4230 ng/mL and a clearance [2, 13] of 9.3 mL/min/kg. For the same compound, the Vd [2, 13] was 0.64 L/kg, the half-life ([2]; male, Sprague-Dawley rat, M, n=6, 1 mg/kg single IV, plasma LC/MS/MS, non-compartmental, one time point per animal, read-out: t1/2 (converted)) was 48.3 min and the AUC(0-inf) [2, 14] was 9060 ng·h/mL. It also gave a C0 [2, 14] of 24300 ng/mL, a clearance [2, 14] of 9.2 mL/min/kg and a Vd [2, 14] of 0.366 L/kg. It also gave a half-life ([2]; male, Sprague-Dawley rat, M, n=6, 5 mg/kg single IV, plasma LC/MS/MS, non-compartmental, one time point per animal, read-out: t1/2 (converted)) of 27.6 min, an AUC(0-inf) [2, 15] of 215000 ng·h/mL and a Vd [2, 15] of 0.171 L/kg. It also gave a half-life ([2]; male, Sprague-Dawley rat, M, n=6, 75 mg/kg single IV, plasma LC/MS/MS, non-compartmental, one time point per animal, read-out: t1/2 (converted)) of 20.5 min, a C0 [2, 16] of 469000 ng/mL and a clearance [2, 16] of 5.8 mL/min/kg. For the same compound, the half-life ([3]; plasma, male cynomolgus monkeys, IV 5 and 50 mg/kg, read-out: average half-life) was roughly 55 min, the AUC(0-inf) [3, 17] was 28200 ng·h/mL and the C0 [3, 17] was 55100 ng/mL. The clearance [3, 17] was 2.98 mL/min/kg, the Vd [3, 17] was 0.204 L/kg and the half-life ([3]; male, M, n=3, 5 mg/kg single IV, plasma LC/MS/MS, non-compartmental, mean (SD), read-out: t1/2 (converted)) was 53.3 min. The AUC(0-inf) [3, 18] was 421000 ng·h/mL, the C0 [3, 18] was 602000 ng/mL and the clearance [3, 18] was 2.97 mL/min/kg. The Vd [3, 18] was 0.162 L/kg, the half-life ([3]; male, M, n=3, 50 mg/kg single IV, plasma LC/MS/MS, non-compartmental, mean (SD), read-out: t1/2 (converted)) was 57.4 min and the “detailed clinical observations and cage-side observations” value [4] was “no test-article-related abnormalities”. For the same compound, the safety profile [5] was “acceptable safety profile”.
